Literature values in CN105130966A, “炔基化合物及其使用方法和用途” (Add And Open Up Scientific Co, priority 2014, dated 2015).

Tests used:
[1] = tested on: any protein kinase tested (试验的任何蛋白激酶); details: Cell, 2006, 125, 733-747
PI3Kδ = PI3Kδ (Mus musculus, UniProt O35904); details: ovalbumin-induced airway inflammation; FASEB, 2006, 20, 455-465
PI3Kδ, sequence (O35904 whole entry): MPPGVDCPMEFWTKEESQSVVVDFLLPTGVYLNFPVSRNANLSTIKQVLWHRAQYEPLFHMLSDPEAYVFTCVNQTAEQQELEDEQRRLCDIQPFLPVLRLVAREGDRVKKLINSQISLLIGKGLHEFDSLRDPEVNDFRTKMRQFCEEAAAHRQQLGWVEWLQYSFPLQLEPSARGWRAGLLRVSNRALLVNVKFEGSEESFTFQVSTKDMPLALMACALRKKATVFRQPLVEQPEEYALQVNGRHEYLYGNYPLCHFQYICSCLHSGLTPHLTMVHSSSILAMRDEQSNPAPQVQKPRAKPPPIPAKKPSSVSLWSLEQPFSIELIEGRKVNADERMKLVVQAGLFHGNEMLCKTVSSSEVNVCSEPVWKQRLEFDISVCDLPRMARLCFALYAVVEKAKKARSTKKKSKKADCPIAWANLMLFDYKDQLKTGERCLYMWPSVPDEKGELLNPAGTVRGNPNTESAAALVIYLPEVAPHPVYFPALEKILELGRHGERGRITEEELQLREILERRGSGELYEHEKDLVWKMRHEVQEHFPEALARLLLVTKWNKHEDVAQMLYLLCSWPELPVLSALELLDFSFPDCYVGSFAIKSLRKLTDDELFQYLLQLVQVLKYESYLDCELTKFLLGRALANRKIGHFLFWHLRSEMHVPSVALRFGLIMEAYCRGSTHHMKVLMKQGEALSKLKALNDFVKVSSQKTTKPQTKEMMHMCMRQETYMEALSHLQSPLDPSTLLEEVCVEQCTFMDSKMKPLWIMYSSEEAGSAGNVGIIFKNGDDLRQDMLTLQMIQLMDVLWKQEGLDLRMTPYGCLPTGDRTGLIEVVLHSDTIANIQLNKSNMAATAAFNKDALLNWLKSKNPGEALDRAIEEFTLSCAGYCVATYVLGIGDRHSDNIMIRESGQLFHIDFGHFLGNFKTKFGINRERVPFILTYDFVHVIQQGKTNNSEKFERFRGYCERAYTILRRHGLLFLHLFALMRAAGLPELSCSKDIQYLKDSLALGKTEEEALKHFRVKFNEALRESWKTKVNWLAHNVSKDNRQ
PI3Kδ, sequence (P26450 whole entry partner): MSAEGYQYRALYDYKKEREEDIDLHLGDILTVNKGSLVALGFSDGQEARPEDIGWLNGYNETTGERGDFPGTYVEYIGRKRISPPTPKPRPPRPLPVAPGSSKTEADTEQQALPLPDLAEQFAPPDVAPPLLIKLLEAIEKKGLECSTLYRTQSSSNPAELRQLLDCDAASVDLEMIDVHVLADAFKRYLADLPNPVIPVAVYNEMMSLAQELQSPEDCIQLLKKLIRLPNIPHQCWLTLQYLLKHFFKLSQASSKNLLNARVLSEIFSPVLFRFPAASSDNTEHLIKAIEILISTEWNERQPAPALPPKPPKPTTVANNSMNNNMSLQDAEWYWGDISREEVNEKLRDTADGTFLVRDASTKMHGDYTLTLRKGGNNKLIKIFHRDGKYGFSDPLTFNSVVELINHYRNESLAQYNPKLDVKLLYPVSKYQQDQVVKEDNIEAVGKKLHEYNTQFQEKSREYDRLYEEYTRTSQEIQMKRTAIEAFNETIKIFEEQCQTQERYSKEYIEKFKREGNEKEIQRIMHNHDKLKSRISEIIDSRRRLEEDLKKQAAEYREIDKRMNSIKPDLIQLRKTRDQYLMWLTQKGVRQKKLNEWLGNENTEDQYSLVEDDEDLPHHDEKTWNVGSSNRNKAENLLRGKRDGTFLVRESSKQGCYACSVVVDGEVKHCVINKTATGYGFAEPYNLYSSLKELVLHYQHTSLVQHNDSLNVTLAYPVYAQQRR

Question: For `Cc1ccccc1-n1c(Cn2cnc3c(N)ncnc32)nc2cccc(C)c2c1=O` [IC87114], which activity [1] is on record?
Answer: 不显示活性

Question: And the inflammation (PI3Kδ)?
Answer: 显著改善炎症
